Experimental data from patent publication US20250281480A1, “PHARMACEUTICAL DRY POWDER INHALATION FORMULATION” (Bayer Aktiengesellschaft, priority 2021, published 2025).

Tests used:
[1] = system: anesthetized PAH minipigs; test: PAH minipig, intratracheal application of dry powder formulations and of different hydrates (PAP, BP); format: in vivo, Göttingen Minipigs; conditions: dry powder lactose formulation, i.t.
Experimental: Healthy Göttingen Minipigs® Ellegaard (Ellegaard, Denmark) of both sexes and having a weight of 2-6 kg were used. The animals were sedated by i.m. administration of about 25 mg/kg ketamine and about 10 mg/kg azaperone. Anaesthesia was initiated by i.v. administration of about 2 mg/kg ketamine and about 0.3 mg/kg midazolam. Maintenance of anaesthesia was by i.v. administration of about 7.5-30 mg/kg/h ketamine and about 1-4 mg/kg/h midazolam (rate of infusion 1-4 ml/kg/h) and about 150 μg/kg/h pancuronium bromide (for example Pancuronium-Actavis). After intubation, the animals were ventilated by the ventilator at a constant respiratory volume (10-12 ml/kg, 35 breaths/min; Avea®, Viasys Healthcare, USA, or Engström Carestation, GE Healthcare, Freiburg, Germany) such that an end-tidal CO2 concentration of about 5% was achieved. Ventilation was performed with room air, enriched with about 40% oxygen (normoxia). For the measurement of the haemodynamic parameters such as pulmonary arterial pressure (PAP), blood pressure (BP) and heart rate (HR), catheters were inserted into the carotid artery to measure the blood pressure, and a Swan-Ganz® catheter was introduced in a flow-directed manner via the jugular vein into the pulmonary artery. The haemodynamic signals were recorded and evaluated by means of pressure transducers (Combitransducer, B. Braun, Melsungen, Germany)/amplifiers and Ponemah® as data acquisition software.
About 0.3-0.75 μg/kg/min of 9,11-didesoxy-9α,11α-epoxymethanoprostaglandine F2α (U-44069; Sigma, cat. no. D0400, or Cayman Chemical Company, cat. no. 16440), dissolved in physiological saline, were infused to achieve an increase of the mean pulmonary arterial pressure to values of over 25 mmHg.
After characterization of the effects of comparative example 11 after nebulization of compound solutions, in a further step the effects of crystalline forms of comparative example 11, e.g. sesquihydrate, e.g. example 6e on PAP and BP after inhaled application of different dry powder lactose formulations (table 52) were studied in anesthetized PAH minipigs.
As reference pure Lactose vehicle was applied in the beginning of each experiment.

soluble guanylyl cyclase = test: Efficacy under experimental conditions of oxidative stress (ODQ, L-NAME treatment); format: in vivo
plasma proteins = test: Protein binding via Transil assay, human plasma; format: in vitro ADME; conditions: human plasma
Source text: The distribution of a test substance between Transil® (phosphatidylcholine lipid bilayers immobilized on silica beads) and plasma is a characteristic feature of any pharmaceutical compound and is dependent on its extent of binding to plasma proteins. By comparing the distribution between Transil® and buffer with the distribution between Transil® and plasma of any species of interest, the unbound fraction in the plasma of the respective animal species can be calculated in vitro. The respective plasma and buffer concentrations were determined via a radioactivity analysis. A detailed description of the method and its validation was published by Schuhmacher et al. (2).

O=C(O)c1ccc(CCN(CCc2ccccc2OCc2ccc(-c3ccc(C(F)(F)F)cc3)cc2Cl)[C@H]2CCCc3nc(C(=O)O)ccc32)cc1 [Comparative example 11, (5S)-5-{[2-(4-carboxyphenyl)ethyl][2-(2-{[3-chloro-4′-(trifluoromethyl)[biphenyl]-4-yl]methoxy}phenyl)ethyl]amino}-5,6,7,8-tetrahydroquinoline-2-carboxylic Acid]
MED [1]: < 7.5 µg/kg | efficacy under oxidative stress (soluble guanylyl cyclase): enhanced | free fraction, lower than comparative example 1 (plasma proteins): 2 times lower
